Article PMC7357788, “Overlapping functions and protein-protein interactions of LRR-extensins in Arabidopsis” (PLoS Genetics, 2020)
“Also recorded” adds a separate entry of the source.

Legend:
[1] = test system: LRX1; assay: Yeast-two-hybrid RALF1-LRX1; format: binding, Arabidopsis thaliana; settings: Y2H, yeast strain PJ69-4A, growth on -Trp, Leu, His, Ade drop-out medium
Text: (§1) The BD-LRX4 and AD-FER^ECD constructs for the Yeast-two-hybrid experiment were cloned as previously described, where NtermFER equals AD-FER^ECD and LRR4 equals BD-LRX4. For the BD-LRX1/2/3/5 constructs, the coding sequence of the LRR domain of the LRXs was amplified using primers (S3 Table) to introduce a BamHI and a XhoI site at the 5’ and 3’ end of the PCR fragments, respectively. These were cloned into pJET1.2 (Thermo Scientific) and correct clones were cut with BamHI and XhoI and ligated into pGBKT7 cut with BamHI and SalI. The AD-RALF1 construct was cloned into pJET1.2 (Thermo Scientific) by amplification of the coding sequence with the primers y2h_RALF1_F and y2h_RALF1_R. A correct clone was cut with EcoRI and XmaI and ligated into pGADT7 cut with EcoRI and XmaI.
(§2) Transformation of the yeast strain PJ69-4A [63] was done following standard procedures and quadruple drop-out medium lacking Leu, Trp, His, and Ade were used to screen for positive interactions after 4 days incubation at 30°C. Three different colonies containing both vectors were mixed and plated in triplicates on quadruple drop-out medium.
(§3) Supplementary file pgen.1008847.s002.pdf: S2 Fig Interaction of LRX1 and RALF1 in yeast. The yeast strain PJ69-4A was transformed with pGADT7-RALF1 and pGBKT7-LRR1 or pGBKT7-LRR4, and with either of the constructs with empty plasmids for the negative controls. […]

[2] = test system: LRX1^ΔE; assay: Co-IP of LRX1^ΔE-HA with RALF1-FLAG; format: binding, Arabidopsis thaliana; settings: Co-IP and immunoblotting, transient expression in N. benthamiana
Method: Here, we tested binding of RALF1 to LRX1.
(§4) For pulldown and Co-IP analysis of the different constructs indicated in the experiments DNA was infiltrated into Nicotiana benthamiana leaves, and after 48 hrs, the leaves were excised and ground in liquid nitrogen as described in [62]. Two hundred mg of tissue powder was re-suspended in 500 μL extraction buffer [200 mM Tris-HCl (pH 7.5), 150 mM NaCl, 1 mM PMSF, protease inhibitor and 0.5% Triton X-100]. The suspension was incubated on ice for 30 minutes and then centrifuged at 11,000 rpm for 20 minutes at 4°C. The supernatant (200 μL) was then incubated with 10 μL anti-HA (Thermo Scientific, 88837), or anti-FLAG magnetic beads overnight at 4°C on a rotating shaker. If RALF1 peptide was added, the peptide was diluted in such way that for every sample 1μL of peptide was added to the protein extracts. After incubation, the beads were washed five times with the wash buffer (extraction buffer containing 0.05% Triton X-100) and boiled in SDS-PAGE loading buffer for 15 minutes at 75°C. The immunoprecipitates were then run on an SDS-PAGE gel and transferred to nitrocellulose membrane to perform immunoblotting using the following antibodies: anti-FLAG M2 (Sigma-Aldrich, F3165), anti-GFP (Biolegend, 902601), anti-HA-HRP 3F10 (Roche, 12 013 819 001) and anti-mouse-HRP (Sigma Aldrich, A 4416). […]

[3] = biological target: LRX5 (LRX5^ΔE-FLAG); assay: BLITZ (biolayer interferometry) RALF1-LRX5 binding; set-up: species or system Arabidopsis thaliana; settings: purified LRX^ΔE expressed in N. benthamiana, synthetic RALF1 peptide, association 120 s, dissociation 120 s
Sequence of LRX5 (LRX5^ΔE-FLAG) (Q9SN46 32-405 limits assumed, stated change not applied): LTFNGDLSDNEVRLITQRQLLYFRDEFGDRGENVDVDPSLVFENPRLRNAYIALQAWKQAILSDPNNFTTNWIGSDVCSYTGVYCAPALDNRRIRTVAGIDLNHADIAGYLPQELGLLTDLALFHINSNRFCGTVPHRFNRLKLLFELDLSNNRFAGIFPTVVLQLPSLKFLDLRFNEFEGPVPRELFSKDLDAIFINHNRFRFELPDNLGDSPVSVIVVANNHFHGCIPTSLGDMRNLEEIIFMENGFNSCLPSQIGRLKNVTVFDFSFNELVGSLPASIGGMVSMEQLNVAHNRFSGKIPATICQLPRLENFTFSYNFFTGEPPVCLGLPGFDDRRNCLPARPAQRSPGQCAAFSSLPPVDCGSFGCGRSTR
Method: (§5) The kinetics of the interaction of LRX proteins with RALF1 were tested with Biolayer Interferometry (BLITZ). The LRX^ΔE-FLAG proteins of LRX1, LRX3, LRX4, and LRX5 used for this experiment were expressed transiently in tobacco. […] For RALF1, in vitro synthesized peptide was used. […] While the LRX^ΔE-FLAG had to be soluble in order to get purified prior to application on the sensor (for details, see Materials and Methods), it cannot be completely ruled out that LRX3^ΔE-FLAG has a reduced solubility in this experiment that would provide an alternative explanation for the observed high Kd.
(§6) The BLITZ experiments were performed as previously described. The LRR^ΔE–FLAG versions of the different LRXs were expressed using the 35S promoter in N. benthamiana, presence of proteins was checked by immunoblotting, and proteins were immune-precipitated as described above. […] Protein concentration was determined by Qubit measurement (Quant-iTTM Protein Assay kit, Invitrogen). […] Different RALF synthetic peptide (PHTD peptides) concentrations (200 μM, 150 μM, 100 μM, 50 μM, 20 μM, 15 μM, 10 μM, 4 μM, 2 μM and 0.2 μM) were added to quantify the protein interaction.

[4] = test system: LRX4; assay: Yeast-two-hybrid RALF1-LRX4; format: binding, Arabidopsis thaliana; settings: Y2H, yeast strain PJ69-4A, growth on -Trp, Leu, His, Ade drop-out medium
Text: as §1, §2, §3

[5] = test system: FER; settings: ref [15],[41]; cited from earlier work
[6] = biological target: LRX1 (LRX1^ΔE-FLAG); assay: BLITZ (biolayer interferometry) RALF1-LRX1 binding; set-up: species or system Arabidopsis thaliana; settings: purified LRX^ΔE expressed in N. benthamiana, synthetic RALF1 peptide, association 120 s, dissociation 120 s
Sequence of LRX1 (LRX1^ΔE-FLAG) (O65375 27-381 limits assumed, stated change not applied): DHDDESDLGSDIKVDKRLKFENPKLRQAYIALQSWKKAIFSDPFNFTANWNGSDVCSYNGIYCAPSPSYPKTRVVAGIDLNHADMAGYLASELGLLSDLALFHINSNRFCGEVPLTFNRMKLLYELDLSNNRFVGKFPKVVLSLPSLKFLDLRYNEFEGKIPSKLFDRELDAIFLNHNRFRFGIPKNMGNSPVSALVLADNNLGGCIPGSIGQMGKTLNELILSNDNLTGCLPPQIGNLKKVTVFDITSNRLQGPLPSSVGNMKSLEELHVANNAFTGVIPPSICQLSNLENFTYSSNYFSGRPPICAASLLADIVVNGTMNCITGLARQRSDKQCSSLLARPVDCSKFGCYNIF
Method: as §5, §6
(§7) Supplementary file pgen.1008847.s004.pdf: S4 Fig BLITZ output data. […] Association/dissociation or RALF1 depends on the concentration of applied RALF1, based on which the Kd is calculated. […]

[7] = test system: LRX1^ΔE-FER^ECD interaction; assay: Co-IP: effect of added RALF1 on LRX1^ΔE-FER^ECD interaction; format: binding, Arabidopsis thaliana; settings: synthetic RALF1 peptide 50, 100, 200, 1000 nM added to extracts
Text: In a next step, the dynamics of LRX-RALF1-FER interaction was investigated with a focus on LRX1. To this end, extracts used to show Co-IP of LRX1^ΔE and FER^ECD were supplemented with increasing concentrations of RALF1 peptide.
as §4, with “75°C.” for “75°C. The immunoprecipitates were then run on an SDS-PAGE gel and transferred to nitrocellulose membrane to perform immunoblotting using the following antibodies: anti-FLAG M2 (Sigma-Aldrich, F3165), anti-GFP (Biolegend, 902601), anti-HA-HRP 3F10 (Roche, 12 013 819 001) and anti-mouse-HRP (Sigma Aldrich, A 4416).”

[8] = test system: LRX3 (LRX3^ΔE-FLAG); assay: BLITZ (biolayer interferometry) RALF1-LRX3 binding; set-up: species or system Arabidopsis thaliana; settings: compared with LRX1, LRX4, and LRX5
Sequence of LRX3 (LRX3^ΔE-FLAG) (Q9T0K5 21-388 limits assumed, stated change not applied): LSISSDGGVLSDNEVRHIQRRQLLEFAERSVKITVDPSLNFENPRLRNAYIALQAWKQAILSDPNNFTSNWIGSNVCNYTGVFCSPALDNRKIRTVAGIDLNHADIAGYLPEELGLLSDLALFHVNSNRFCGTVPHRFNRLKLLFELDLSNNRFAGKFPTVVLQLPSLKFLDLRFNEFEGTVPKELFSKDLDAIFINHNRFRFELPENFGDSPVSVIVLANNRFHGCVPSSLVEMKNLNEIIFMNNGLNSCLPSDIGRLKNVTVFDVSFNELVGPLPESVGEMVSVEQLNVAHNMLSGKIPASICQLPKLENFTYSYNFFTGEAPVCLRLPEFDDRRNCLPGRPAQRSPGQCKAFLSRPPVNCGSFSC
Method: as §5, §6

[9] = test system: Arabidopsis seedlings; assay: Root growth inhibition assay; format: in vivo, Arabidopsis thaliana; settings: five days in liquid medium, 1 μM RALF1, student T-test, n = 6, p<0.001 vs control
Text: Supplementary file pgen.1008847.s003.pdf: S3 Fig Synthetic RALF1 peptide activity. […] Error bars represent standard error of the mean. (PDF) Click here for additional data file.

[10] = test system: LRX4; settings: ref [15],[41]; cited from earlier work
[11] = test system: LRX3, LRX4, and LRX5; settings: vegetative tissues; ref [40],[41]; cited from earlier work
Text: LRX proteins were recently identified as high-affinity binding sites for RALF peptides, with the binding spectrum differing among the LRXs. […] Whether and how the binding of RALFs and FER to LRXs influences the interaction of these proteins remains to be investigated. It is also unknown to what extent the different LRXs are functionally similar and whether they share FER as a common interaction ...

[12] = biological target: LRX4 (LRX4^ΔE-FLAG); assay: BLITZ (biolayer interferometry) RALF1-LRX4 binding; set-up: species or system Arabidopsis thaliana; settings: purified LRX^ΔE expressed in N. benthamiana, synthetic RALF1 peptide, association 120 s, dissociation 120 s
Sequence of LRX4 (LRX4^ΔE-FLAG) (Q9LHF1 26-403 limits assumed, stated change not applied): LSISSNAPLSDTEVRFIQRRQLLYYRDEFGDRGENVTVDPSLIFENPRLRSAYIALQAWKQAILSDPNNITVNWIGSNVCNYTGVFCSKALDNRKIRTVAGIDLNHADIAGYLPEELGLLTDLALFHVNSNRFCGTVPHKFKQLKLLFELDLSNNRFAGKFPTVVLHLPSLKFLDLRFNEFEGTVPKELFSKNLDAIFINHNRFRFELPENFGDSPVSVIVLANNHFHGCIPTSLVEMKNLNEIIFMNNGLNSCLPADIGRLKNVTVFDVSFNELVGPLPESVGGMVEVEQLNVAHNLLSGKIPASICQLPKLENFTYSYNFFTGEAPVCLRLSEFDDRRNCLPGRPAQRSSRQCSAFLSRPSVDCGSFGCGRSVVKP
Method: as §5, §6, §7

Substance: RALF1: in vitro synthesized RALF1 peptide hormone (PHTD peptides); gene At1G02900; expressed as AD-RALF1 in yeast-two-hybrid (ATTKYISYQSLKRNSVPCSRRGASYYNCQNGAQANPYSRGCSKIARCRS; UniProt Q9SRY3 72-120, looked up)
- interaction with LRX1 [1]: yeast cells grew effectively in the presence of the two proteins; also recorded: indicates interaction of the LRX proteins with RALF1
- interaction with LRX1^ΔE [2]: shows binding to RALF1
- Kd [3]: 3.5 nM
- interaction with LRX4 [4]: indicates interaction of the LRX proteins with RALF1
- binding to FER [5]: also interacts with FER
- Kd [6]: 4.5 nM
- effect on LRX1^ΔE-FER^ECD interaction [7]: does not influence the interaction of LRX1^ΔE with FER^ECD; also recorded: did not affect the interaction between LRX1^ΔE and FER^ECD
- affinity of LRX3 for RALF1, in words [8]: much lower affinity
- root growth inhibition [9]: effectively inhibited root growth of Arabidopsis seedlings; also recorded: significantly inhibited root growth
- binding to LRX4 [10]: has been shown to bind RALF1
- binding to LRX3, LRX4, and LRX5 [11]: reported to bind
- Kd [12]: 5.5 nM
